Laboratory results from patent US9957269B2, “S-imino-S-oxo iminothiazine compounds as bace inhibitors, compositions, and their use” (Merck Sharp & Dohme Corp., priority 2014, dated 2018).

Legend:
[1] = molecular target: soluble human BACE1 catalytic domain (Homo sapiens, UniProt P56817); assay: BACE1 HTRF FRET Assay; type: biochemical; conditions: Ki calculated from IC50 using the Cheng-Prusoff equation; QSY7-APPswe-Eu substrate 200 nM, pH 5.0
From the text: Na^+-Acetate pH 5.0; 1% Brij-35; Glycerol; Dimethyl Sulfoxide (DMSO); Recombinant human soluble BACE1 catalytic domain (>95% pure); APP Swedish mutant peptide substrate (QSY7-APP^swe-Eu): QSY7-EISEVNLDAEFC-Europium-amide.
A homogeneous time-resolved FRET assay can be used to determine IC50 values for inhibitors of the soluble human BACE1 catalytic domain. This assay monitors the increase of 620 nm fluorescence that resulted from BACE1 cleavage of an APPswedish APP^swe mutant peptide FRET substrate (QSY7-EISEVNLDAEFC-Europium-amide). This substrate contains an N-terminal QSY7 moiety that serves as a quencher of the C-terminal Europium fluorophore (620 nm Em). In the absence of enzyme activity, 620 nm fluorescence is low in the assay and increased linearly over 3 hours in the presence of uninhibited BACE1 enzyme. Inhibition of BACE1 cleavage of the QSY7-APP^swe-Eu substrate by inhibitors is manifested as a suppression of 620 nm fluorescence.
Varying concentrations of inhibitors at 3× the final desired concentration in a volume of 10 ul are preincubated with purified human BACE1 catalytic domain (3 nM in 10 μl) for 30 minutes at 30° C. in reaction buffer containing 20 mM Na-Acetate pH 5.0, 10% glycerol, 0.1% Brij-35 and 7.5% DSMO. Reactions are initiated by addition of 10 μl of 600 nM QSY7-APP^swe-Eu substrate (200 nM final) to give a final reaction volume of 30 μl in a 384 well Nunc HTRF plate. The reactions are incubated at 30° C. for 1.5 hours. The 620 nm fluorescence is then read on a Rubystar HTRF plate reader (BMG Labtechnologies) using a 50 millisecond delay followed by a 400 millisecond acquisition time window. Inhibitor IC50 values are derived from non-linear regression analysis of concentration response curves. Ki values are then calculated from IC50 values using the Cheng-Prusoff equation using a previously determined […] of 8 μM for the QSY7-APP^swe-Eu substrate at BACE.

[2] = molecular target: T1, purified human autoBACE-2 (Homo sapiens, UniProt Q9Y5Z0); assay: BACE-2 Assay (BACE-HTRF assay); type: biochemical; conditions: Ki calculated from IC50 using the Cheng-Prusoff equation; QSY7-EISEVNLDAEFC-Eu-amide substrate 200 nM, pH 5.0; read-out: BACE2 Ki
T1 sequence (Q9Y5Z0 63-473 limits assumed): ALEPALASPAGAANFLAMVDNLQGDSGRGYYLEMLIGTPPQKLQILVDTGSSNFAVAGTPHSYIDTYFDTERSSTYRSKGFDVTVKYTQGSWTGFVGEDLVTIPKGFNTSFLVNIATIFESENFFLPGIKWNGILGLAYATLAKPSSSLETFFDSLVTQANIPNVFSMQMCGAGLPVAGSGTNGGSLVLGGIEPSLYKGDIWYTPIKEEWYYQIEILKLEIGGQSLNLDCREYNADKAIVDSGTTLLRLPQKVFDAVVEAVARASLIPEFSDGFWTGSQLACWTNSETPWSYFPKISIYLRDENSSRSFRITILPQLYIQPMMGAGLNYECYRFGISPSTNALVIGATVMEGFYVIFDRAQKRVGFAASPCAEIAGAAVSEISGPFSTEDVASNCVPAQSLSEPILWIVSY
Procedure: Inhibitor IC50s at purified human autoBACE-2 are determined in a time-resolved endpoint proteolysis assay that measures hydrolysis of the QSY7-EISEVNLDAEFC-Eu-amide FRET peptide substrate (BACE-HTRF assay). BACE-mediated hydrolysis of this peptide results in an increase in relative fluorescence (RFU) at 620 nm after excitation with 320 nm light. Inhibitor compounds, prepared at 3× the desired final concentration in 1× BACE assay buffer (20 mM sodium acetate pH 5.0, 10% glycerol, 0.1% Brij-35) supplemented with 7.5% DMSO are pre-incubated with an equal volume of autoBACE-2 enzyme diluted in 1× BACE assay buffer (final enzyme concentration 1 nM) in black 384-well NUNC plates for 30 minutes at 30° C. […] DMSO is present at 5% final concentration in the assay. Following laser excitation of sample wells at 320 nm, the fluorescence signal at 620 nm is collected for 400 ms following a 50 μs delay on a RUBYstar HTRF plate reader (BMG Labtechnologies). Raw RFU data is normalized to maximum (1.0 nM BACE/DMSO) and minimum (no enzyme/DMSO) RFU values. IC50s are determined by nonlinear regression analysis (sigmoidal dose response, variable slope) of percent inhibition data with minimum and maximum values set to 0 and 100 percent respectively. Similar IC50s are obtained when using raw RFU data. The Ki values are calculated from the IC50 using the Cheng-Prusoff equation.

soluble human BACE1 catalytic domain, sequence (P56817 75-416 limits assumed): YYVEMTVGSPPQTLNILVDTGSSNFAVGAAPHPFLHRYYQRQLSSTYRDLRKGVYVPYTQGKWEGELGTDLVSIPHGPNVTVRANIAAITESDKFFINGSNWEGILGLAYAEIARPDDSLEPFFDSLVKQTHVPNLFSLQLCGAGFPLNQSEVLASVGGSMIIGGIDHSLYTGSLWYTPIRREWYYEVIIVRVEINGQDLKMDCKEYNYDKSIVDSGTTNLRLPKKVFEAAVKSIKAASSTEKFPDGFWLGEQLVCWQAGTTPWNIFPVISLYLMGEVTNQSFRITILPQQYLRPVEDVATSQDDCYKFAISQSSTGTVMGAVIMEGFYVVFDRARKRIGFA

A Ki [1] of 98 nM and a Ki [2] of 75 nM were found for `CN=[S@@]1(=O)C[C@@](C)(c2cc(Nc3ccnc4cc(OC)cnc34)ccc2F)NC(=N)C1(C)C` [Example 2, (1R,5R)-5-(2-fluoro-5-((7-methoxy-1,5-naphthyridin-4-yl)amino)phenyl)-3-imino-2,2,5-trimethyl-1-(methylimino)-1λ^6-thiomorpholine 1-oxide] in this work.

A Ki [1] of 28 nM and a Ki [2] of 25 nM were found for `CN=[S@]1(=O)C[C@@](C)(c2cc(Nc3nccc4cc(OC)cnc34)ccc2F)NC(=N)C1(C)C` [Example 4, (1S,5R)-5-(2-fluoro-5-((3-methoxy-1,7-naphthyridin-8-yl)amino)phenyl)-3-imino-2,2,5-trimethyl-1-(methylimino)-1λ^6-thiomorpholine 1-oxide] in this work.

A Ki [1] of 3 nM and a Ki [2] of 1 nM were found for `CN=[S@@]1(=O)C[C@@](C)(c2cc(Nc3ncnc4cc(Br)cnc34)ccc2F)NC(=N)C1(C)C` [Example 8, (1R,5R)-5-(5-((7-bromopyrido[3,2-d]pyrimidin-4-yl)amino)-2-fluorophenyl)-3-imino-2,2,5-trimethyl-1-(methylimino)-1λ^6-thiomorpholine 1-oxide] in this work.

A Ki [1] of 1160 nM was found for `CN=[S@]1(=O)C[C@@](C)(c2cc(Nc3ccnc4nc(OC)cnc34)ccc2F)NC(=N)C1(C)C` [Example 5, (1S,5R)-5-(2-fluoro-5-((3-methoxypyrido[2,3-b]pyrazin-8-yl)amino)phenyl)-3-imino-2,2,5-trimethyl-1-(methylimino)-1λ^6-thiomorpholine 1-oxide] in this work.

A Ki [1] of 24 nM and a Ki [2] of 6 nM were found for `CN=[S@]1(=O)C[C@@](C)(c2cc(Nc3ncccc3OC)ccc2F)NC(=N)C1(C)C` [Example 9, (1S,5R)-5-(2-fluoro-5-((3-methoxypyridin-2-yl)amino)phenyl)-3-imino-2,2,5-trimethyl-1-(methylimino)-1λ^6-thiomorpholine 1-oxide] in this work.

A Ki [1] of 14 nM and a Ki [2] of 16 nM were found for `CN=[S@@]1(=O)C[C@@](C)(c2cc(Nc3nccc4nc(OC)cnc34)ccc2F)NC(=N)C1(C)C` [Example 1, (1R,5R)-5-(2-fluoro-5-((2-methoxypyrido[3,4-b]pyrazin-5-yl)amino)phenyl)-3-imino-2,2,5-trimethyl-1-(methylimino)-1λ^6-thiomorpholine 1-oxide] in this work.

A Ki [1] of 4 nM and a Ki [2] of 2 nM were found for `CN=[S@]1(=O)C[C@@](C)(c2cc(Nc3nccc4cc(Br)cnc34)ccc2F)NC(=N)C1(C)C` [Example 6, (1S,5R)-5-(5-((3-bromo-1,7-naphthyridin-8-yl)amino)-2-fluorophenyl)-3-imino-2,2,5-trimethyl-1-(methylimino)-1λ^6-thiomorpholine 1-oxide] in this work.

A Ki [1] of 10 nM was found for `CN=[S@]1(=O)C[C@@](C)(c2cc(Nc3ncnc4cc(Br)cnc34)ccc2F)NC(=N)C1(C)C` [Example 7, (1S,5R)-5-(5-((7-bromopyrido[3,2-d]pyrimidin-4-yl)amino)-2-fluorophenyl)-3-imino-2,2,5-trimethyl-1-(methylimino)-1λ^6-thiomorpholine 1-oxide] in this work.
